Laboratory results reported in ChEMBL document CHEMBL3727358, “Inhibitors of inducible form of 6-phosphofructose-2-kinase” (2014).

Each molecule was assayed against T1, 6-phosphofructo-2-kinase/fructose-2,6-bisphosphatase 3 (Homo sapiens, UniProt Q16875) (assay: Inhibition of iPFK2 (unknown origin) assessed as reduction in enzyme-mediated fructose-6-phosphate phosphorylation by measuring ATP consumption incubated for 3 hrs by luciferase-luciferin-coupled chemiluminescence assay).
T1 sequence (Q16875 whole entry): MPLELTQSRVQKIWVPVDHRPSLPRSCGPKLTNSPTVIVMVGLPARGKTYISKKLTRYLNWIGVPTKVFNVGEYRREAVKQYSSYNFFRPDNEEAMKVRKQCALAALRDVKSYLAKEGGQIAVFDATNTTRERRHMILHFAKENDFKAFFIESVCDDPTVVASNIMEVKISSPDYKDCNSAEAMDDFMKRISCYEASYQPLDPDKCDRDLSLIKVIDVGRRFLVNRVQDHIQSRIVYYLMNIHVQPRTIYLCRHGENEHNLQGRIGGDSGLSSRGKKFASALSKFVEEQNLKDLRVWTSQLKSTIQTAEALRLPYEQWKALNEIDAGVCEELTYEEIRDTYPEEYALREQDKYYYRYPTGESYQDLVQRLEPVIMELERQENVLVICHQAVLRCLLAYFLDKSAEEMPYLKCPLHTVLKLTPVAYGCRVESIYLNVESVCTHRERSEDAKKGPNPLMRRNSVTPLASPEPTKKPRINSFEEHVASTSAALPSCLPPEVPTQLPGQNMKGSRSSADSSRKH

IC50 [nM]	SMILES
> 1000	Cc1nc(NCc2cc(-c3ccccc3)no2)cc(-c2ccc3ncsc3c2)n1
500	Cc1nc(NC(C)c2cccc(OCc3cccnc3)c2)cc(-c2ccc3ncsc3c2)n1 (centres undefined)
> 1000	Cc1nc(NCCc2ccc(O)cc2)cc(-c2ccc3ncsc3c2)n1
> 1000	COc1cccc2c1CCCC2Nc1cc(-c2ccc3ncsc3c2)nc(C)n1 (centres undefined)
500	COc1cccc([C@H](C)Nc2cc(-c3cccc(Cl)c3)nc(C)n2)c1
> 1000	COc1cccc([C@H](C)Nc2cc(-c3cccc(N(C)C)c3)nc(C)n2)c1
> 1000	COc1cccc([C@H](C)Nc2cc(-c3ccc4[nH]ncc4c3)nc(C)n2)c1
> 1000	Cc1nc(N[C@@H](C)c2cccc(-c3ccccc3)c2)cc(-c2ccc3ncsc3c2)n1
500	Cc1nc(NC(C)c2cccc(-c3ccc(F)nc3C)c2)cc(-c2ccc3ncsc3c2)n1 (centres undefined)
500	Cc1nc(NC(C)c2cccc(OCc3noc(C)n3)c2)cc(-c2ccc3ncsc3c2)n1 (centres undefined)
500	Cc1nc(NC(C)c2cccc(OCc3ccn(C)n3)c2)cc(-c2ccc3occc3c2)n1 (centres undefined)
> 1000	CCOC(=O)CCCOc1cccc(C(C)Nc2cc(-c3ccc4ncsc4c3)nc(C)n2)c1 (centres undefined)
> 1000	Cc1nc(NC(C)c2ccc(F)c(OCc3ccnn3C)c2)cc(-c2ccc3ncsc3c2)n1 (centres undefined)
> 1000	COc1cccc([C@H](C)Nc2cc(-c3ccc4ncoc4c3)nc(C)n2)c1
500	Cc1nc(NC(C)c2cccc(OCC(=O)N3CCOCC3)c2)cc(-c2ccc3ncsc3c2)n1 (centres undefined)
500	Cc1nc(NC(C)c2cccc(OCc3ccn[nH]3)c2)cc(-c2ccc3ncsc3c2)n1 (centres undefined)
500	Cc1nc(NC(C)c2cccc(OCCCC(=O)N(C)C)c2)cc(-c2ccc3ncsc3c2)n1 (centres undefined)
500	COc1cccc([C@H](C)Nc2cc(-c3cccc(F)c3)nc(C)n2)c1
> 1000	Cc1nc(NCCc2ccccn2)cc(-c2ccc3ncsc3c2)n1

IC50 [nM]	SMILES
500	Cc1nc(NC(C)c2cccc(OCC(=O)O)c2)cc(-c2ccc3ccn(C)c3c2)n1 (centres undefined)
500	COc1cc(-c2cc(NC(C)c3cccc(OCc4ccn(C)n4)c3)nc(C)n2)ccc1C (centres undefined)
> 1000	Cc1nc(N[C@@H](C)c2cccc(-c3cccn3C)c2)cc(-c2ccc3ncsc3c2)n1
500	COc1cccc(-c2cc(NC(C)c3cccc(OCC#N)c3)nc(C)n2)c1 (centres undefined)
500	Cc1nc(NC(C)c2cccc(Br)c2)cc(-c2ccc3ncsc3c2)n1 (centres undefined)
> 1000	COc1cccc([C@H](C)Nc2cc(-c3ccnc(C)c3)nc(C)n2)c1
> 1000	COCC(C)Nc1cc(-c2ccc3ncsc3c2)nc(C)n1 (centres undefined)
500	COc1cccc([C@H](C)Nc2cc(-c3ccc(C)c(OC)c3)nc(C)n2)c1
> 1000	COc1cccc(-c2cc(NC(C)c3cccc(Br)c3)nc(C)n2)c1 (centres undefined)
> 1000	COc1cccc(-c2cc(NC(C)c3cccc(O)c3)nc(C)n2)c1 (centres undefined)
> 1000	COc1cccc([C@H](C)Nc2cc(-c3cccc4[nH]ccc34)nc(C)n2)c1
> 1000	COc1cccc(C(CCC#N)Nc2cc(-c3ccc4ncsc4c3)nc(C)n2)c1 (centres undefined)
> 1000	COc1cccc([C@H](C)Nc2cc(-c3ccc4cc[nH]c4c3)nc(C)n2)c1
500	COc1ccc2c(c1)CCCC2Nc1cc(-c2ccc3ncsc3c2)nc(C)n1 (centres undefined)
> 1000	COc1cccc([C@@H](C)Nc2cc(-c3ccc4ncsc4c3)nc(C)n2)c1
> 1000	Cc1nc(NC(C)c2cccc(OCCn3cccc3)c2)cc(-c2ccc3ncsc3c2)n1 (centres undefined)
500	Cc1nc(NC(C)c2cccc(OC(C)(C)C(N)=O)c2)cc(-c2ccc3ncsc3c2)n1 (centres undefined)
500	Cc1nc(NC(C)c2ccnc(Cl)c2)cc(-c2ccc3ncsc3c2)n1 (centres undefined)

Second part, the molecule before the results:

SMILES	IC50 [nM]
COC(=O)CN1CCc2ccc(-c3cc(N[C@@H]4CCCc5ccccc54)nc(C)n3)cc21	> 1000
COc1ccc(F)c(-c2cc(N[C@@H]3CCCc4ccccc43)nc(C)n2)c1	> 1000
COCCn1ccc2ccc(-c3cc(N[C@@H]4CCCc5ccccc54)nc(C)n3)cc21	> 1000
CCOC(=O)CCNC(=O)CC(Nc1cc(-c2cccc(OC)c2)nc(C)n1)c1cccc(OC)c1 (centres undefined)	> 1000
Cc1nc(NC2Cc3ccccc3C2)cc(-c2ccc3ncsc3c2)n1	500
Cc1nc(N[C@@H]2CCCc3ccccc32)cc(-c2ccc3c(c2)N(CCO)CCO3)n1	> 1000
CCc1coc2ccc(-c3cc(NC(C)c4cccc(O)c4)nc(C)n3)cc12 (centres undefined)	> 1000
Cc1nc(N[C@@H]2CCCc3ccccc32)cc(-c2cccc3[nH]ccc23)n1	> 1000
Cc1nc(N[C@@H]2CCCc3ccccc32)cc(-c2cncnc2)n1	> 1000
CNC(=O)COc1cccc(C(C)Nc2cc(-c3cccc(OC)c3Cl)nc(C)n2)c1 (centres undefined)	500
Cc1nc(NC2CC(C)(C)Oc3ccccc32)cc(-c2ccc3ncsc3c2)n1 (centres undefined)	500
COC(=O)CNc1cccc(CNc2cc(-c3cccc(OC)c3)nc(C)n2)c1	> 1000
Cc1nc(N[C@@H]2CCCc3ccccc32)cc(-c2ccc(F)cc2)n1	500
Cc1nc(N[C@@H]2CCCc3ccccc32)cc(-c2ccncc2)n1	> 1000
CCc1coc2ccc(-c3cc(NC(C)c4cccc(-c5cnn(C)c5)c4)nc(C)n3)cc12 (centres undefined)	> 1000
CCCCC(CC)CNc1cc(-c2ccc3ncsc3c2)nc(C)n1 (centres undefined)	500
COCc1cccc(-c2cc(N[C@@H]3CCCc4ccccc43)nc(C)n2)c1	> 1000
COc1cccc(-c2cc(N[C@@H](C)c3cccc(C(F)(F)F)c3)nc(C)n2)c1	> 1000
Cc1nc(N[C@@H]2CCCc3ccccc32)cc(-c2ccc3occ(CC(=O)NCCO)c3c2)n1	> 1000
Cc1nc(NC[C@@H]2CCCN(C(=O)OC(C)(C)C)C2)cc(-c2ccc3ncsc3c2)n1	> 1000
Cc1nc(NCCc2c[nH]cn2)cc(-c2ccc3ncsc3c2)n1	> 1000
Cc1nc(NC(C)c2cccc(-c3cnn(C)c3)c2)cc(-c2ccc3c(c2)OCCO3)n1 (centres undefined)	> 1000
COc1cccc([C@H](C)Nc2cc(-c3ccccc3F)nc(C)n2)c1	> 1000
Cc1nc(N[C@@H]2CCCc3ccccc32)cc(-c2ccc(N)cc2)n1	> 1000
Cc1ccc([C@H](C)Nc2cc(-c3ccc4ccn(C)c4c3)nc(C)n2)cc1	500
CC(=O)c1cccc(-c2cc(N[C@@H]3CCCc4ccccc43)nc(C)n2)c1	> 1000
CCOC(=O)CNC(=O)COc1cccc(C(C)Nc2cc(-c3ccc4ccn(C)c4c3)nc(C)n2)c1 (centres undefined)	500

SMILES	IC50 [nM]
Cc1ccc([C@H](C)Nc2cc(-c3ccc4occ(C)c4c3)nc(C)n2)cc1	500
COc1cccc([C@H](C)Nc2cc(-c3ccccc3C)nc(C)n2)c1	> 1000
Cc1nc(N[C@@H]2CCCc3ccccc32)cc(-c2ccc(N(C)C)cc2)n1	> 1000
Cc1nc(NC(C)c2cccc(-c3cnn(C)c3)c2)cc(-c2cccc(O)c2)n1 (centres undefined)	500
COc1cccc(-c2cc(NC(C)c3cccc(S(=O)(=O)N(CC#N)C(=O)OC(C)(C)C)c3)nc(C)n2)c1 (centres undefined)	> 1000
Cc1cccc(-c2cc(N[C@@H]3CCCc4ccccc43)nc(C)n2)c1	500
Cc1cccc(-c2cc(NC(C)c3cccc(-c4cnn(C)c4)c3)nc(C)n2)c1 (centres undefined)	500
COc1cccc(-c2cc(NC(C)c3cccc(S(=O)(=O)NCC(=O)O)c3)nc(C)n2)c1 (centres undefined)	> 1000
Cc1nc(NC(C)c2cccc(-c3ccsc3)c2)cc(-c2ccc3occ(C)c3c2)n1 (centres undefined)	> 1000
Cc1nc(N[C@@H]2CCCc3ccccc32)cc(-c2cccc(C=O)c2)n1	> 1000
COc1cccc([C@H](C)Nc2cc(-c3cccc(OC(F)(F)F)c3)nc(C)n2)c1	> 1000
Cc1nc(NC(C)c2cccc(-c3ccoc3)c2)cc(-c2ccc3occ(C)c3c2)n1 (centres undefined)	500
COc1cccc([C@H](C)Nc2cc(N[C@@H]3CCCc4ccccc43)nc(C)n2)c1	> 1000
Cc1nc(NCCCC(C)(C)CO)cc(-c2ccc3ncsc3c2)n1	> 1000
Cc1nc(NC(C)c2cccc(-c3cnn(C)c3)c2)cc(-c2ccc3[nH]ccc3c2)n1 (centres undefined)	500
COc1cccc(-c2cc(NC(C)c3cccc(NCC(=O)O)c3)nc(C)n2)c1 (centres undefined)	> 1000
CCc1ccc(-c2cc(NC(C)c3cccc(-c4cnn(C)c4)c3)nc(C)n2)cc1 (centres undefined)	500
Cc1nc(NC(C)c2cccc(-c3cnn(C)c3)c2)cc(-c2ccc3c(c2)N(C)CCO3)n1 (centres undefined)	500
Cc1nc(N[C@@H]2CCCc3ccccc32)cc(-c2ccc3ccccc3c2)n1	500
Cc1nc(NC2CCOc3ccc([N+](=O)[O-])cc32)cc(-c2ccc3ncsc3c2)n1 (centres undefined)	> 1000
COc1ccc(Cl)c(-c2cc(N[C@@H]3CCCc4ccccc43)nc(C)n2)c1	> 1000
CCC(Nc1cc(-c2cccc(OC)c2)nc(C)n1)c1cccc(OC)c1 (centres undefined)	> 1000
Cc1nc(N[C@@H]2CCCc3ccccc32)cc(-c2cccc(OC(F)(F)F)c2)n1	> 1000
Cc1nc(N[C@@H](C)C(C)(C)C)cc(-c2ccc3ncsc3c2)n1	> 1000
Cc1nc(N[C@@H]2CCCc3ccccc32)cc(-c2cccc3cc[nH]c23)n1	> 1000
Cc1nc(N[C@H]2CCOc3ccccc32)cc(-c2ccc3ncsc3c2)n1	> 1000
CNC(=O)CNc1cc(-c2cc(N[C@@H]3CCCc4ccccc43)nc(C)n2)ccc1Cl	> 1000

Each molecule was assayed against T1, 6-phosphofructo-2-kinase/fructose-2,6-bisphosphatase 3 (assay: Inhibition of iPFK2 (unknown origin) assessed as reduction in enzyme-mediated fructose-6-phosphate phosphorylation by measuring NADH absorbance pre-incubated for 10 mins before ATP/substrate addition followed by incubation for 1 hr by UV-Visible spectrometry based iPFK-2/PPI-PFK coupled enzyme assay).

IC50 [nM]	SMILES
500	Cc1nc(NCc2cc(OCC(=O)N(C)C)ccc2F)cc(-c2ccc3ncsc3c2)n1
> 1000	Cc1cc(COc2cccc([C@@H](C)Nc3cc(-c4ccc5ncsc5c4)nc(C)n3)c2)n(C)n1
500	Cc1nc(N[C@@H](C)c2cccc(/C=C/C(=O)NC(C)(C)C)c2)cc(-c2ccc3ncsc3c2)n1
500	Cc1nc(NC(C)c2cccc(OCCCN3CCCC3)c2)cc(-c2ccc3ncsc3c2)n1 (centres undefined)
500	CCN(C)C(=O)COc1cccc(C(C)Nc2cc(-c3ccc4ncsc4c3)nc(C)n2)c1 (centres undefined)
500	Cc1nc(NC(C)c2cccc(OCC(=O)N3CCCCC3)c2)cc(-c2ccc3ncsc3c2)n1 (centres undefined)
500	Cc1nc(N[C@@H](C)c2cccc(-c3cnc(N4CCCCC4)nc3)c2)cc(-c2ccc3ncsc3c2)n1
500	Cc1nc(NC(C)c2cccc(OCC(=O)N(C)C)c2)cc(-c2ccc3ncsc3c2)n1 (centres undefined)
